Test system: 636577-100-R-J1-PDC complex spheroid viability
Assay: Anticancer human tumor 636577-100-R-J1-PDC patient-derived endometrial adenocarcinoma cell line growth inhibition [GQUAD]
Conditions: for IC50: curve of first compound; for viability, T/C: stronger effect = lower value
Procedure, shortened: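 Multi-cell-type spheroids of tumor cells with HUVEC and mesenchymal stem cells, treated with drug combinations. Concentrations descend in half-log steps from near clinical Cmax, or from 10 microM where Cmax is unknown; viability read-out.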

[1] = second compound 0.0316 µM, first compound 0.0316 µM
[2] = second compound 0.0316 µM, first compound 0.1 µM
[3] = second compound 0.0316 µM, first compound 0.316 µM
[4] = second compound 0.0316 µM, first compound 1 µM
[5] = second compound 0.0316 µM, first compound 3.16 µM
[6] = second compound 0.0316 µM, first compound 10 µM
[7] = second compound 0.1 µM, first compound 0.0316 µM
[8] = second compound 0.1 µM, first compound 0.1 µM
[9] = second compound 0.1 µM, first compound 0.316 µM
[10] = second compound 0.1 µM, first compound 1 µM
[11] = second compound 0.1 µM, first compound 3.16 µM
[12] = second compound 0.1 µM, first compound 10 µM
[13] = second compound 0.316 µM, first compound 0.0316 µM
[14] = second compound 0.316 µM, first compound 0.1 µM
[15] = second compound 0.316 µM, first compound 0.316 µM
[16] = second compound 0.316 µM, first compound 1 µM
[17] = second compound 0.316 µM, first compound 3.16 µM
[18] = second compound 0.316 µM, first compound 10 µM
[19] = second compound 1 µM, first compound 0.0316 µM
[20] = second compound 1 µM, first compound 0.1 µM
[21] = second compound 1 µM, first compound 0.316 µM
[22] = second compound 1 µM, first compound 1 µM
[23] = second compound 1 µM, first compound 3.16 µM
[24] = second compound 1 µM, first compound 10 µM
[25] = second compound 3.16 µM, first compound 0.0316 µM
[26] = second compound 3.16 µM, first compound 0.1 µM
[27] = second compound 3.16 µM, first compound 0.316 µM
[28] = second compound 3.16 µM, first compound 1 µM
[29] = second compound 3.16 µM, first compound 3.16 µM
[30] = second compound 3.16 µM, first compound 10 µM
[31] = second compound 10 µM, first compound 0.0316 µM
[32] = second compound 10 µM, first compound 0.1 µM
[33] = second compound 10 µM, first compound 0.316 µM
[34] = second compound 10 µM, first compound 1 µM
[35] = second compound 10 µM, first compound 3.16 µM
[36] = second compound 10 µM, first compound 10 µM
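Also: viability read after seven days of drug exposure.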
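For viability, T/C in this document: luminescence signal used as a proxy for viable cells; 100% = DMSO vehicle control wells.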

## COc1cc(C2c3cc4c(cc3C(OC3OC5COC(C)OC5C(O)C3O)C3COC(=O)C23)OCO4)cc(OC)c1O (stereo unspecified) + Cc1cnc(CNC(=O)c2c(=O)c3ccc(N4CCCN(C)CC4)nc3n3c2sc2ccccc23)cn1
Second compound 0.0316 µM
  IC50: < 31.6 nM
Second compound 0.1 µM
  IC50: < 31.6 nM
Second compound 0.316 µM
  IC50: < 31.6 nM
Second compound 1 µM
  IC50: < 31.6 nM
Second compound 3.16 µM
  IC50: < 31.6 nM
Second compound 10 µM
  IC50: < 31.6 nM
[1]
  viability, T/C: 28.9%
[2]
  viability, T/C: 21.4%
[3]
  viability, T/C: 18.5%
[4]
  viability, T/C: 14.2%
[5]
  viability, T/C: 13.7%
[6]
  viability, T/C: 10.5%
[7]
  viability, T/C: 25.8%
[8]
  viability, T/C: 22.7%
[9]
  viability, T/C: 18.6%
[10]
  viability, T/C: 13.6%
[11]
  viability, T/C: 16.5%
[12]
  viability, T/C: 12.9%
[13]
  viability, T/C: 22.2%
[14]
  viability, T/C: 21.3%
[15]
  viability, T/C: 17.8%
[16]
  viability, T/C: 16.4%
[17]
  viability, T/C: 17%
[18]
  viability, T/C: 13.2%
[19]
  viability, T/C: 21.5%
[20]
  viability, T/C: 19.1%
[21]
  viability, T/C: 17.6%
[22]
  viability, T/C: 18.9%
[23]
  viability, T/C: 17.8%
[24]
  viability, T/C: 12.5%
[25]
  viability, T/C: 19.3%
[26]
  viability, T/C: 16.4%
[27]
  viability, T/C: 19.6%
[28]
  viability, T/C: 19.2%
[29]
  viability, T/C: 18.2%
[30]
  viability, T/C: 13.4%
[31]
  viability, T/C: 17.8%
[32]
  viability, T/C: 18.5%
[33]
  viability, T/C: 19.4%
[34]
  viability, T/C: 19.2%
[35]
  viability, T/C: 17.7%
[36]
  viability, T/C: 12.3%

## Cc1cccc(N(C)C(=O)C2C(O)CCN2c2nc(C)cc(C(F)(F)F)c2C#N)c1 (stereo unspecified) + Cc1cnc(CNC(=O)c2c(=O)c3ccc(N4CCCN(C)CC4)nc3n3c2sc2ccccc23)cn1
Second compound 0.0316 µM
  IC50: < 31.6 nM
Second compound 0.1 µM
  IC50: < 31.6 nM
Second compound 0.316 µM
  IC50: < 31.6 nM
Second compound 1 µM
  IC50: < 31.6 nM
Second compound 3.16 µM
  IC50: < 31.6 nM
Second compound 10 µM
  IC50: < 31.6 nM
[1]
  viability, T/C: 52.7%
[2]
  viability, T/C: 43.5%
[3]
  viability, T/C: 35%
[4]
  viability, T/C: 39.7%
[5]
  viability, T/C: 40.5%
[6]
  viability, T/C: 43.9%
[7]
  viability, T/C: 29.2%
[8]
  viability, T/C: 22.6%
[9]
  viability, T/C: 25.3%
[10]
  viability, T/C: 23.2%
[11]
  viability, T/C: 25.7%
[12]
  viability, T/C: 24.6%
[13]
  viability, T/C: 21.8%
[14]
  viability, T/C: 18.1%
[15]
  viability, T/C: 21.6%
[16]
  viability, T/C: 21.6%
[17]
  viability, T/C: 24.2%
[18]
  viability, T/C: 22.7%
[19]
  viability, T/C: 19.1%
[20]
  viability, T/C: 19.7%
[21]
  viability, T/C: 19.7%
[22]
  viability, T/C: 19.2%
[23]
  viability, T/C: 20.8%
[24]
  viability, T/C: 25.2%
[25]
  viability, T/C: 12.5%
[26]
  viability, T/C: 19.6%
[27]
  viability, T/C: 19.4%
[28]
  viability, T/C: 21%
[29]
  viability, T/C: 22.4%
[30]
  viability, T/C: 20.7%
[31]
  viability, T/C: 22.3%
[32]
  viability, T/C: 17.8%
[33]
  viability, T/C: 21%
[34]
  viability, T/C: 17.9%
[35]
  viability, T/C: 22.9%
[36]
  viability, T/C: 20.8%

## Cn1ncnc1[C@H]1c2n[nH]c(=O)c3cc(F)cc(c23)N[C@@H]1c1ccc(F)cc1 + Cc1cnc(CNC(=O)c2c(=O)c3ccc(N4CCCN(C)CC4)nc3n3c2sc2ccccc23)cn1
Second compound 0.0316 µM
  IC50: < 0.999 nM
Second compound 0.1 µM
  IC50: < 0.999 nM
Second compound 0.316 µM
  IC50: < 0.999 nM
Second compound 1 µM
  IC50: < 0.999 nM
Second compound 3.16 µM
  IC50: < 0.999 nM
Second compound 10 µM
  IC50: < 0.999 nM
Second compound 0.0316 µM, first compound 0.000999 µM
  viability, T/C: 47.9%
Second compound 0.0316 µM, first compound 0.00316 µM
  viability, T/C: 25.6%
Second compound 0.0316 µM, first compound 0.00999 µM
  viability, T/C: 39.7%
[1]
  viability, T/C: 24%
Second compound 0.0316 µM, first compound 0.0999 µM
  viability, T/C: 24.7%
[3]
  viability, T/C: 24.9%
Second compound 0.1 µM, first compound 0.000999 µM
  viability, T/C: 26.9%
Second compound 0.1 µM, first compound 0.00316 µM
  viability, T/C: 26.9%
Second compound 0.1 µM, first compound 0.00999 µM
  viability, T/C: 26.6%
[7]
  viability, T/C: 20.6%
Second compound 0.1 µM, first compound 0.0999 µM
  viability, T/C: 24.1%
[9]
  viability, T/C: 19.9%
Second compound 0.316 µM, first compound 0.000999 µM
  viability, T/C: 21%
Second compound 0.316 µM, first compound 0.00316 µM
  viability, T/C: 23.2%
Second compound 0.316 µM, first compound 0.00999 µM
  viability, T/C: 21.1%
[13]
  viability, T/C: 22.9%
Second compound 0.316 µM, first compound 0.0999 µM
  viability, T/C: 21.8%
[15]
  viability, T/C: 19.2%
Second compound 1 µM, first compound 0.000999 µM
  viability, T/C: 20.1%
Second compound 1 µM, first compound 0.00316 µM
  viability, T/C: 19%
Second compound 1 µM, first compound 0.00999 µM
  viability, T/C: 19.8%
[19]
  viability, T/C: 21%
Second compound 1 µM, first compound 0.0999 µM
  viability, T/C: 19.4%
[21]
  viability, T/C: 20.4%
Second compound 3.16 µM, first compound 0.000999 µM
  viability, T/C: 19%
Second compound 3.16 µM, first compound 0.00316 µM
  viability, T/C: 18.6%
Second compound 3.16 µM, first compound 0.00999 µM
  viability, T/C: 21.6%
[25]
  viability, T/C: 19.7%
Second compound 3.16 µM, first compound 0.0999 µM
  viability, T/C: 21.7%
[27]
  viability, T/C: 19.2%
Second compound 10 µM, first compound 0.000999 µM
  viability, T/C: 15.2%
Second compound 10 µM, first compound 0.00316 µM
  viability, T/C: 18.5%
Second compound 10 µM, first compound 0.00999 µM
  viability, T/C: 21.9%
[31]
  viability, T/C: 19.4%
Second compound 10 µM, first compound 0.0999 µM
  viability, T/C: 21.9%
[33]
  viability, T/C: 19.2%
